Measurements taken from patent US12465590B2, “Oxalamido-substituted tricyclic inhibitors of hepatitis b virus” (priority 2019, dated 2025).
pEC50: −log10 of the molar value.

system: HBV; experiment: not given; conditions: Phase 1b clinical studies; cited from earlier work

Structure (SMILES) | HBV DNA | serum HBV RNA
O=C(Nc1cc(F)c(F)c(F)c1)c1ccc(F)c(S(=O)(=O)N2CCC(O)CC2)c1 [NVR3-778] | significant reduction | significant reduction

system: HBV; experiment: HBV inhibition assay in HepAD38 cells (extracellular HBV DNA by direct qPCR); type: cell-based, HBV genotype D subtype ayw; conditions: 96 hours, read-out: HBV inh EC50
Excerpt: HepAD38 cell line (Ladner et al., Antimicrob Agents Chemother, 1997, 41, 1715-20) was used for HBV inhibition assays. HepAD38 is a subclone, derived from hepatoblastoma cell line HepG2 (ATCC® Number: HB-8065), that expresses HBV genome (genotype D subtype ayw) under the transcriptional control of a tetracycline-responsive promoter in a TET-OFF system: addition of doxycycline, an antibiotic belonging to the class of tetracycline, suppresses HBV replication, while its removal switches on the process allowing HBV viral particles release in the cell supernatant. HepAD38 cell line is maintained in DMEM/F12, supplemented with 10% of fetal bovine serum, 1% of glutamine, 1% of penicillin/streptomycin, 0.4 mg/ml G418 and 0.3 ug/ml tetracycline. For the HBV inhibition assay, doxycycline-free medium is used in order to allow virion production.
HBV inhibition activity in vitro was performed in 96 multiwell plates. During the initial (primary) screening, compounds were first tested in triplicates at concentrations of 0.02 μM, 0.1 μM, 0.5 μM and 1 μM. For selected compounds, an 8-point dose-response curve was obtained using 1:2 serial dilutions (starting from 0.01 μM, 0.1 μM, 0.4 μM or 5 μM, depending on the degree of inhibition observed during the primary screening). From the dose-response curves, half maximal effective concentration (EC50) could be calculated (see also below).
In more detail, compounds—typically dissolved in DMSO stock solutions—were diluted to 2× the final desired concentration in 100 μl of the above medium (without doxycycline) and plated in three replicates in the 96-well plates.
Simultaneously, HepAD38 cells—extensively pre-washed in doxycycline-free medium in order to induce HBV production—were suspended at 2*10^4 cells in 100 μl of doxycycline-free medium and added to each well of the plate, to yield a final assay volume of 200 μl.
DMSO, used for stock solutions and compounds dilutions, was always present in the assays at a final concentration of 0.5%.
Plates were then incubated 96 hours at 37° C. and then subjected to cell viability assays and extracellular HBV quantification, in order to evaluate both the cytotoxic potential and the antiviral activity of compounds.
Cytotoxicity was assessed by a commercial fluorescence assay that measures the metabolic activity of cells, directly related to cell viability (Cell Titer Blue, Promega). For each compound, cytotoxicity was evaluated at the same concentration employed to evaluate its anti-HBV activity. Anti-HBV activity was evaluated by quantification of extracellular HBV DNA with direct qPCR. In particular, supernatant was collected and centrifuged for cell debris clarification, viral DNA was extracted from virions by addition of lysis buffer (1 mM 1,4-dithiothreitol, 0.2% sodium dodecyl sulphate) and incubated at 95° C. for 10 min. Samples were then diluted 1:40 and real time PCR amplification was performed with SYBR green assay (Power SYBR™ Green PCR Master Mix-Thermo Fisher Scientific) and specific HBV primer (HBV-DF:5′-[…]-3′ (SEQ ID No. 1), HBV-DR:5′-[…]-3′ (SEQ ID No. 2)).
Antiviral activity data for each compound are reported as EC50 value (see Table 1 legend). Excel and Graphpad Prism programs are typically used for data elaboration and EC50 calculation.

Structure (SMILES) | pEC50
Cc1cc(NC(=O)c2c3c(cn2C)S(=O)(=O)NC2CN(C(=O)C(=O)NC(C)(C)C(F)(F)F)CCC2CO3)ccc1F (racemic) [Example E69, Trans-N-(4-fluoro-3-methylphenyl)-2-methyl-7-(2-oxo-2-((1,1,1-trifluoro-2-methylpropan-2-yl)amino)acetyl)-5,5a,6,7,8,9,9a,10-octahydro-2H-pyrido[3,4-f]pyrrolo[3,4-b][1,4,5]oxathiazocine-1-carboxamide 4,4-dioxide] | > 6.30
Cc1cc(NC(=O)c2c3c(cn2C)S(=O)(=O)NC2CCN(C(=O)C(=O)N[C@H](C)C(F)(F)F)CC2CO3)ccc1F (mixture of isomers) [Example E72, Cis-N-(4-fluoro-3-methylphenyl)-2-methyl-8-(2-oxo-2-(((R)-1,1,1-trifluoropropan-2-yl)amino)acetyl)-5,5a,6,7,8,9,9a,10-octahydro-2H-pyrido[4,3-f]pyrrolo[3,4-b][1,4,5]oxathiazocine-1-carboxamide 4,4-dioxide] | > 6.30
Cc1cc(NC(=O)c2c3c(cn2C)S(=O)(=O)NC2CN(C(=O)C(=O)N4CC(F)(F)C4)CCC2CO3)ccc1F (racemic) [Example E70, Trans-7-(2-(3,3-difluoroazetidin-1-yl)-2-oxoacetyl)-N-(4-fluoro-3-methylphenyl)-2-methyl-5,5a,6,7,8,9,9a,10-octahydro-2H-pyrido[3,4-f]pyrrolo[3,4-b][1,4,5]oxathiazocine-1-carboxamide 4,4-dioxide] | > 6.30
Cc1cc(NC(=O)c2c3c(cn2C)S(=O)(=O)NC2CN(C(=O)C(=O)N[C@@H](C)C(F)(F)F)CCC2CO3)ccc1F (mixture of isomers) [Example E71, Trans-N-(4-fluoro-3-methylphenyl)-2-methyl-7-(2-oxo-2-(((S)-1,1,1-trifluoropropan-2-yl)amino)acetyl)-5,5a,6,7,8,9,9a,10-octahydro-2H-pyrido[3,4-f]pyrrolo[3,4-b][1,4,5]oxathiazocine-1-carboxamide 4,4-dioxide] | > 6.30
Cc1cc(NC(=O)c2c3c(cn2C)S(=O)(=O)NC2CN(C(=O)C(=O)NCC(F)(F)F)CCC2CO3)ccc1F (racemic) [Example E68, Trans-N-(4-fluoro-3-methylphenyl)-2-methyl-7-(2-oxo-2-((2,2,2-trifluoroethyl)amino)acetyl)-5,5a,6,7,8,9,9a,10-octahydro-2H-pyrido[3,4-f]pyrrolo[3,4-b][1,4,5]oxathiazocine-1-carboxamide 4,4-dioxide] | > 6.30
Cc1cc(NC(=O)c2c3c(cn2C)S(=O)(=O)NC2CN(C(=O)C(=O)N[C@H](C)C(F)(F)F)CCC2CO3)ccc1F (mixture of isomers) [Example E66, Trans-N-(4-fluoro-3-methylphenyl)-2-methyl-7-(2-oxo-2-(((R)-1,1,1-trifluoropropan-2-yl)amino)acetyl)-5,5a,6,7,8,9,9a,10-octahydro-2H-pyrido[3,4-f]pyrrolo[3,4-b][1,4,5]oxathiazocine-1-carboxamide 4,4-dioxide] | > 6.30

same assay, conditions: Hepatitis B virus, 96 hours, read-out: HBV inh EC50

Structure (SMILES) | pEC50
Cc1cc(NC(=O)c2c3c(c(C)n2C)S(=O)(=O)N[C@H]2CN(C(=O)C(=O)N[C@H](C)C(F)(F)F)C[C@H]2CO3)ccc1F [Example E53, (3aR,10aR)—N-(4-fluoro-3-methylphenyl)-6,7-dimethyl-2-(2-oxo-2-(((R)-1,1,1-trifluoropropan-2-yl)amino)acetyl)-2,3,3a,4,10,10a-hexahydro-1H,7H-dipyrrolo[3,4-b:3′,4′-f][1,4,5]oxathiazocine-8-carboxamide 5,5-dioxide] | > 6.30
Cc1cc(NC(=O)c2c3c(cn2C)S(=O)(=O)NC2CN(C(=O)C(=O)N[C@H](C)C(F)(F)F)CC2(C)CO3)ccc1F (stereo in doubt) [Example E26, Cis-N-(4-fluoro-3-methylphenyl)-7,10a-dimethyl-2-(2-oxo-2-(((R)-1,1,1-trifluoropropan-2-yl)amino)acetyl)-2,3,3a,4,10,10a-hexahydro-1H,7H-dipyrrolo[3,4-b:3′,4′-f][1,4,5]oxathiazocine-8-carboxamide 5,5-dioxide] | > 6.30
Cc1cc(NC(=O)c2c3c(cn2C)S(=O)(=O)NC2CN(C(=O)C(=O)NC4CC4)CCC2CO3)ccc1F (racemic) [Example E64, Cis-7-(2-(cyclopropylamino)-2-oxoacetyl)-N-(4-fluoro-3-methylphenyl)-2-methyl-5,5a,6,7,8,9,9a,10-octahydro-2H-pyrido[3,4-f]pyrrolo[3,4-b][1,4,5]oxathiazocine-1-carboxamide 4,4-dioxide] | > 6.30
Cc1cc(NC(=O)c2c3c(cn2C)S(=O)(=O)NC2CN(C(=O)C(=O)N4CC(F)(F)C4)CCC2CO3)ccc1F (racemic) [Example E63, Cis-7-(2-(3,3-difluoroazetidin-1-yl)-2-oxoacetyl)-N-(4-fluoro-3-methylphenyl)-2-methyl-5,5a,6,7,8,9,9a,10-octahydro-2H-pyrido[3,4-f]pyrrolo[3,4-b][1,4,5]oxathiazocine-1-carboxamide 4,4-dioxide] | > 6.30
Cc1cc(NC(=O)c2c3c(cn2C)S(=O)(=O)NC2(C)CN(C(=O)C(=O)N[C@H](C)C(F)(F)F)CC2CO3)ccc1F (stereo in doubt) [Example E27, Cis-N-(4-fluoro-3-methylphenyl)-3a,7-dimethyl-2-(2-oxo-2-(((R)-1,1,1-trifluoropropan-2-yl)amino)acetyl)-2,3,3a,4,10,10a-hexahydro-1H,7H-dipyrrolo[3,4-b:3 ‘,4’-f][1,4,5]oxathiazocine-8-carboxamide 5,5-dioxide] | > 6.30
